Reference: patent EP1591123A1, “USES OF NARINGENIN, NARINGIN AND SALTS THEREOF AS EXPECTORANTS IN THE TREATMENT OF COUGH, AND COMPOSITIONS THEREOF” (Su, Wei-wei, priority 2003, dated 2004)
“Also recorded” adds a separate entry of the source. Counter-ions that a name gives are not always drawn.

What was measured:
mice = experiment: Antitussive test of Naringenin, spray by high concentration ammonia (Example 30); assay type: in vivo; conditions: for R Value: EDT50 of the treatment / EDT50 of the control x 100%; for EDT50: mice, oral, dose 0.2 (mg/20g), spray one hour later
Text: 1. Animal: 120 healthy male mice weighing 19.5-22.1g was grouped into 8 groups random after labeled, which was selected from 130 male mice weighing 19.3-22.6g. Every group was 15 mice. Eight group were set including negative control group, positive control group, high dose group of Naringenin, middle dose group of Naringenin, low dose group of Naringenin, high dose group of sodium salt of Naringenin, middle dose group of sodium salt of Naringenin, low dose group of sodium salt of Naringenin.
• 1) Blank control group: physiological saline, 0.9% NaCl; • 2) Positive control group: 30mg Dextromethorphan Hydrobromide was dissolve into 20 ml physiological saline and the sample concentration was 1.5 mg/ml to obtain the solution for positive control. • 3) low dose group of Naringenin: weighting out the appropriate amount of Naringenin and dissolving it in physiological saline, then the sample concentration was 0.5 mg/ml. • 4) middle dose group of Naringenin: weighting out the appropriate amount of Naringenin and dissolving it in physiological saline, then the sample concentration was 1.5mg/ml. • 5) high dose group of Naringenin: weighting out the appropriate amount of Naringenin and dissolving it in physiological saline, then the sample concentration was 4.5 mg/ml. • 6) low dose group of sodium salt of Naringenin: weighting out the appropriate amount of sodium salt of Naringenin and dissolving it in physiological saline, then the sample concentration was 0.5 mg/ml. • 7) middle dose group of sodium salt of Naringenin: weighting out the appropriate amount of sodium salt of Naringenin and dissolving it in physiological saline, then the sample concentration was 1.5 mg/ml. • 8) high dose group of sodium salt of Naringenin: weighting out the appropriate amount of sodium salt of Naringenin and dissolving it in physiological saline, then the sample concentration was 4.5 mg/ml.
Animals were oral administered, and were sprayed one hour later. After the spray took out the animals and observed the tussive action. Observed the time of tussis in one minutes, if it appeared typical tussis three times in one minutes(shrinking the abdomen muscle or shrinking chest, puffing mouth at the same time, sometimes appearing tussive sound), we consider it "appearing tussis", otherwise "no tussis".
We calculated the spraying time that half of mice were tusisive by sequential method. And calculated the R, the drug was provided with effect of relieve a cough if R>130%. The drug was provided with remarkable effect of relieve a cough if R>150%. Underside is expressions: R=(EDT50 of the treatment)/(EDT50 of the control)× 100% [formula] EDT50=log^-1c/n ('n' is the number of animal, 'c' is the sum of 'rx' value, 'r' is the number of animal in every group, 'x' is the logarithm of dose(namely spray time).)

NIH little mice = experiment: Toxicological experiment, single oral dose, 10 days observation (Examples 32-35); assay type: in vivo; conditions: for dosage without toxic reaction as multiple of the normal dosage: oral dosage tested relative to normal dose for human beings; for changes in little mice's weight / toxic reaction / deaths of little mice / pathological inspection of each apparatus: oral; for changes in little mice's weight / toxic reaction: ten days; for deaths of little mice / pathological inspection of each apparatus: tenth day
Description: (§1) With temperature in the range of 24±1 °C and humidity in the range of 65±5 %,choose 20 NIH little mice which are 7-8 years old ,healthy and clean, male and female for each half ,their weights are between 20 and 22 gram.. Antisepsis the feed and water, before and in the layoff period of the test, all the mice should be feed under the normal feeding condition.
(§2) Dissolve Naringin in 0.5 % Tween80, the concentration is 300mg/ml,this liquor is given to little mice by oral access, the dosage is 0.2ml/20g weight of little mice. After administration ,they are observed for 1,4,8,12 hours, and then once per 12 hours. Observe the deaths of little mice ,and record the changes in little mice's weight as well as other symptoms. In the tenth day, kill little mice by breaking their necks, and take each apparatus for pathological inspection.
as §1, with “of 25±1” for “of 24±1”, “of 75±5” for “of 65±5”, “[…], healthy” for “years old ,healthy”, “half , their” for “half ,their”, “between 18.5” for “between 20”, “and 20.5” for “and 22”
as §2, with “Naringin sodium salt medicine” for “Naringin”, “in brine,” for “in 0.5 % Tween80,”, “is 300mg/ml, this” for “is 300mg/ml,this”, “little mice, and” for “little mice ,and”, “mice's weights” for “mice's weight”, “pathological inspection.. […]” for “pathological inspection.”

SMILES	R Value (mice; sample concentration 0.5 mg/ml) [%]	R Value (mice; sample concentration 1.5 mg/ml) [%]	R Value (mice; sample concentration 4.5 mg/ml) [%]	time of appearing tussis (mice; compared with Dextromethorphan Hydrobromide (positive control group))	EDT50 (mice; sample concentration 0.5 mg/ml) [s]	EDT50 (mice; sample concentration 1.5 mg/ml) [s]	EDT50 (mice; sample concentration 4.5 mg/ml) [s]	Effect of relieving cough (mice; sample concentration 0.5 mg/ml)	Effect of relieving cough (mice; sample concentration 1.5 mg/ml)	Effect of relieving cough (mice; sample concentration 4.5 mg/ml)	dosage without toxic reaction as multiple of the normal dosage (NIH little mice)	changes in little mice's weight (NIH little mice; 6.0g/kg)	toxic reaction (NIH little mice; 6.0g/kg)	deaths of little mice (NIH little mice; 6.0g/kg)	pathological inspection of each apparatus (NIH little mice; 6.0g/kg)	changes in little mice's weight (NIH little mice; 3.0g/kg)	toxic reaction (NIH little mice; 3.0g/kg)	deaths of little mice (NIH little mice; 3.0g/kg)	pathological inspection of each apparatus (NIH little mice; 3.0g/kg)	toxic reaction (NIH little mice; 3.0g/kg, listed as Naringin sodium salt)
O=C1CC(c2ccc(O)cc2)Oc2cc(O)cc(O)c21 (stereo not drawn) [Naringenin, 4', 5, 7 -trihydroxyflavanone]	131.85	169.85	171.23	statistical significance prolonging the time	51.29	66.07	66.61	effect (the drug was provided with effect of relieve a cough if R>130%)	remarkably effect (The drug was provided with remarkable effect of relieve a cough if R>150%)	remarkably effect (The drug was provided with remarkable effect of relieve a cough if R>150%)	460	weights of little mice are not found lightening	toxic reaction can't be found; also recorded: hasn't toxic reaction	all little mice are still alive	pathological changes have not been found					
C[C@@H]1O[C@@H](O[C@H]2[C@H](Oc3cc(O)c4c(c3)O[C@H](c3ccc(O)cc3)CC4=O)O[C@H](CO)[C@@H](O)[C@@H]2O)[C@H](O)[C@H](O)[C@H]1O [Naringin, 4', 5', 7-trihydroxyflavanone-7-rhamnoneglucoside]											230					weights of little mice are not found lightening	toxic reaction can't be found; also recorded: haven't toxic reaction	all little mice are still alive	pathological changes have not been found	
O=C1C[C@@H](c2ccc(O)cc2)Oc2cc(O)cc(O)c21 [sodium salt of Naringenin]	142.3	178.6	189.1		55.35	69.48	73.56	effect (the drug was provided with effect of relieve a cough if R>130%)	remarkably effect (The drug was provided with remarkable effect of relieve a cough if R>150%)	remarkably effect (The drug was provided with remarkable effect of relieve a cough if R>150%)	460	weights of little mice are not found lightening	toxic reaction can't be found	all the little mice are still alive	pathological changes have not been found					
C[C@@H]1O[C@@H](O[C@H]2[C@H](Oc3cc(O)c4c(c3)O[C@H](c3ccc(O)cc3)CC4=O)O[C@H](CO)[C@@H](O)[C@@H]2O)[C@H](O)[C@H](O)[C@H]1O [sodium salt of Naringin]											230					weights of little mice are not found lightening		all little mice are still alive	pathological changes have not been found	toxic reaction can't be found
